One test deals with THP1 cells. Description: Proliferation inhibition based on THP1 cells (IL-4 stimulation, CTG). The format is cell-based. To be noted: Homo sapiens, THP-1, read-out: IC50 (uM), proliferation inhibitory activity on THP1 cells. On the procedure:
1. Cell plating: cultured cells were collected and counted for viable cells with Vi-Cell XR cell counter. The cell suspension was adjusted to an appropriate concentration with the medium and then added to a 96-well cell culture plate. 80 μL of the cell suspension was added to each well of the 96-well cell culture plate. The cell plating density depended on the growth rate of the cells. The cells were cultured in corresponding incubators.
(§1) 2. Drug treatment and IL-4 stimulation: firstly, a series of test compound concentration (work solution-1) was prepared using DMSO with 3× gradient dilution, and then it was subjected to fold dilution with RPMI1640+10% FBS to obtain a work solution-2; Cisplatin's work solution-2 was prepared with RPMI1640+10% FBS, and then 1-10 μL solution taken from the work solution-2 was added to the prepared cell wells containing medium. The cells were cultured in the corresponding incubators. After incubation, 1-10 μL of IL-4 medium was added to each well and continued to culture. An appropriate CTG solution was added to each well.
Cell Survial Rate Calculation
(§2) T is the luminescence reading of a drug treatment group, and C is the average luminescence reading of a solvent control group.

A further test deals with Hela cells. Nature of the test: Proliferation inhibition based on Hela cells (OSM stimulation, CTG). The format is cell-based. To be noted: Homo sapiens, OSM stimulation, read-out: IC50 (uM), proliferation inhibitory activity on Hela cells. On the procedure:
1. Cell plating: cultured cells were collected and counted for viable cells with Vi-Cell XR cell counter. The cell suspension was adjusted to an appropriate concentration with the medium and then added to a 96-well cell culture plate. 50 μL-100 μL of the cell suspension was added to each well of the 96-well cell culture plate. The cell plating density depended on the growth rate of the cells. The cells were cultured in corresponding incubators.
2. Drug Treatment and OSM Stimulation
as §1, with “Firstly,” for “2. Drug treatment and IL-4 stimulation: firstly,”, “medium.” for “medium. The cells were cultured in the corresponding incubators.”, “OSM” for “IL-4”, “well. The mixture was shaken and mixed for 1-5 min and then a luminescence signal was determined with an Envision2104 plate reader.” for “well.”
Cell Survival Rate Calculation
as §2

A further test addresses JAK1 (Homo sapiens, UniProt P23458). Nature of the test: JAK kinase inhibitory activity, HTRF biochemical assay. On the procedure:
(§3) The compounds of the above embodiments were applied to the detection and screening of JAK kinase inhibitory activity.
(§4) A corresponding volume of DMSO was added to each well of a first 96-well plate. 20-30 μL of 100-200 μM stock solution of different test compounds were added to each well. The mixture was shaken and mixed for 3 min. All of the compounds were subjected to 3× serial dilution. 60-80 μL Kinase buffer was added to each well of a second 96-well plate, and 1-2 μL of the solution taken from each well of the first 96-well plate was added to the corresponding well of the second 96-well plate. The mixture was shaken and mixed for 3 min. 5 μL of compound dilution taken from each well of the second compound dilution plate was transferred to the corresponding well of a 384-well test plate. 1-2 μL TK Substrate-biotin was added to each well of the test plate. 1-2 μL of enzyme mixture was added to each well. At the same time, a blank well without enzyme was set. 1-2 μL of ATP solution was added to each well, the plate was sealed and reacted at room temperature. The reaction time was as follows: JAK1: 2 h, JAK2: 30 min, JAK3: 30 min, and TYK2: 50 min. 3-5 μL of Streptavidin-XL665 and 3-5 μL of TK Antibody-cryptate were added to each well, the plate was sealed and allowed to stand at room temperature for 30 min to complete the reaction.
(§5) The percentage of inhibition was calculated based on the following formula:
(§6) Inhibition %=[(Ratiomax−Ratiocompound)/(Ratiomax−Ratiomin)]×100%
(§7) Ratiocompound is the HTRF ratio at a given compound concentration, Ratiomin is the HTRF ratio added to the blank well, and Ratiomax is the HTRF ratio without adding the compound. GraphPad Prism 5.0 software was used to plot a sigmoid dose-inhibition rate curve with a non-linear regression model and calculate the IC50 value.

A further test has as its target TYK2 (Homo sapiens, UniProt P29597). The test is described as above. On the procedure: as §3, §4, §5, §6, §7
In the next test the target is T1, JAK3 (Homo sapiens, UniProt P52333).
T1 sequence (P52333 1-1124): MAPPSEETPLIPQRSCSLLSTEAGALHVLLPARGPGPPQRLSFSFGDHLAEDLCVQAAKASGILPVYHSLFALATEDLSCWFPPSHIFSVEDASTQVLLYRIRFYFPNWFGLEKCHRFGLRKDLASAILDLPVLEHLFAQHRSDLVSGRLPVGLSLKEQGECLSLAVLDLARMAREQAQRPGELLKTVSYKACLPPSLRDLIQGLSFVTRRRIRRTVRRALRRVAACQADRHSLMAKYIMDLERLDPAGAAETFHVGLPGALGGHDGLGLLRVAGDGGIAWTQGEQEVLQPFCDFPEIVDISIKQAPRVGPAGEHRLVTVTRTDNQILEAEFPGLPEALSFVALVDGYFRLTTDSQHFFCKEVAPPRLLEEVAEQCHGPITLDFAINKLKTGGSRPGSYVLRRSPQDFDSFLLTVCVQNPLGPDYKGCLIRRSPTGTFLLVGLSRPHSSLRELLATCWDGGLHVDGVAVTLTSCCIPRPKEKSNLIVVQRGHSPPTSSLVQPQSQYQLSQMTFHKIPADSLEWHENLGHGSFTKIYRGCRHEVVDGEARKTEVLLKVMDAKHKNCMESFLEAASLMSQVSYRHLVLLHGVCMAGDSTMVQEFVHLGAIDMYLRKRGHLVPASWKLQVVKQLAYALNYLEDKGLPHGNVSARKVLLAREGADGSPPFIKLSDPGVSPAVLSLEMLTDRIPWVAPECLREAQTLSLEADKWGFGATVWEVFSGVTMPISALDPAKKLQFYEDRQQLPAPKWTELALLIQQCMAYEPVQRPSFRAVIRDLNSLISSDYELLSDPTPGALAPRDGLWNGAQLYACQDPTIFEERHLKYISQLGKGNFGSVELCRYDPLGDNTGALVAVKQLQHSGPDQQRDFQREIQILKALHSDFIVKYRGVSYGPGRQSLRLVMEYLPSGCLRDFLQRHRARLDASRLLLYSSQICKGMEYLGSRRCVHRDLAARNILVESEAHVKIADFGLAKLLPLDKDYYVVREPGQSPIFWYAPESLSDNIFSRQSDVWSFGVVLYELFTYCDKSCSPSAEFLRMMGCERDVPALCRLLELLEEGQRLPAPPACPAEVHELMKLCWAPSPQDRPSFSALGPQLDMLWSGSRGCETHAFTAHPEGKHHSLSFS
The description is as above. On the procedure:
as §3, §4, §5, §6, §7

A further test concerns the target JAK2 (Homo sapiens, UniProt O60674). Described as above. On the procedure: as §3, §4, §5, §6, §7

Sequence of JAK2 (O60674 whole entry, species assumed): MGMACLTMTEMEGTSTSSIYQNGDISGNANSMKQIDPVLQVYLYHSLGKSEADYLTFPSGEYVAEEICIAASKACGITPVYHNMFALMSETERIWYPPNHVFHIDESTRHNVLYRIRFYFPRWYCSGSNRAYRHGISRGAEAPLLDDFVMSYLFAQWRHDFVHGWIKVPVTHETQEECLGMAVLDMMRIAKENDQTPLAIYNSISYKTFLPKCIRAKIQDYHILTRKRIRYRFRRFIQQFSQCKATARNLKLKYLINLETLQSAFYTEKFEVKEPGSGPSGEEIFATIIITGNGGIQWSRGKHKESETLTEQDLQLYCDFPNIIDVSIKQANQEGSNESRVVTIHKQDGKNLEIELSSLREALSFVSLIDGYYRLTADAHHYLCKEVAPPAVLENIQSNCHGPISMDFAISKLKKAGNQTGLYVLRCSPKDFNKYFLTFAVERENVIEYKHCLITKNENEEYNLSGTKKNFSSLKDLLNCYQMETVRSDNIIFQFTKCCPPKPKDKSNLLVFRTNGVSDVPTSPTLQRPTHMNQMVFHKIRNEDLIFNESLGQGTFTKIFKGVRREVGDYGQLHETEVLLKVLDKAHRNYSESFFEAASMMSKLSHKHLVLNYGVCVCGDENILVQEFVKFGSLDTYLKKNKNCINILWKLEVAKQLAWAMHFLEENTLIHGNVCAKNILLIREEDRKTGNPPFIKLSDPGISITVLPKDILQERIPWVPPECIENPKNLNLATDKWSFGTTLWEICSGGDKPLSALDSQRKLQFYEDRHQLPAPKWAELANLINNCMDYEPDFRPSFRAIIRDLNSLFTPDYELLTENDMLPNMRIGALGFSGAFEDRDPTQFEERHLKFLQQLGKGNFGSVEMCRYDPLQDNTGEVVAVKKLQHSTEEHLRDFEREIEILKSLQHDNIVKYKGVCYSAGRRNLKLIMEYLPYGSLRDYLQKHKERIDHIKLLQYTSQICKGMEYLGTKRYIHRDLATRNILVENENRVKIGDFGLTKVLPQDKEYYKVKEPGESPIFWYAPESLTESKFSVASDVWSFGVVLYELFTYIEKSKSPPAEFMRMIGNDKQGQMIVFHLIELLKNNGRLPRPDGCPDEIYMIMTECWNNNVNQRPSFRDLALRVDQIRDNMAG
Sequence of TYK2 (P29597 whole entry, species assumed): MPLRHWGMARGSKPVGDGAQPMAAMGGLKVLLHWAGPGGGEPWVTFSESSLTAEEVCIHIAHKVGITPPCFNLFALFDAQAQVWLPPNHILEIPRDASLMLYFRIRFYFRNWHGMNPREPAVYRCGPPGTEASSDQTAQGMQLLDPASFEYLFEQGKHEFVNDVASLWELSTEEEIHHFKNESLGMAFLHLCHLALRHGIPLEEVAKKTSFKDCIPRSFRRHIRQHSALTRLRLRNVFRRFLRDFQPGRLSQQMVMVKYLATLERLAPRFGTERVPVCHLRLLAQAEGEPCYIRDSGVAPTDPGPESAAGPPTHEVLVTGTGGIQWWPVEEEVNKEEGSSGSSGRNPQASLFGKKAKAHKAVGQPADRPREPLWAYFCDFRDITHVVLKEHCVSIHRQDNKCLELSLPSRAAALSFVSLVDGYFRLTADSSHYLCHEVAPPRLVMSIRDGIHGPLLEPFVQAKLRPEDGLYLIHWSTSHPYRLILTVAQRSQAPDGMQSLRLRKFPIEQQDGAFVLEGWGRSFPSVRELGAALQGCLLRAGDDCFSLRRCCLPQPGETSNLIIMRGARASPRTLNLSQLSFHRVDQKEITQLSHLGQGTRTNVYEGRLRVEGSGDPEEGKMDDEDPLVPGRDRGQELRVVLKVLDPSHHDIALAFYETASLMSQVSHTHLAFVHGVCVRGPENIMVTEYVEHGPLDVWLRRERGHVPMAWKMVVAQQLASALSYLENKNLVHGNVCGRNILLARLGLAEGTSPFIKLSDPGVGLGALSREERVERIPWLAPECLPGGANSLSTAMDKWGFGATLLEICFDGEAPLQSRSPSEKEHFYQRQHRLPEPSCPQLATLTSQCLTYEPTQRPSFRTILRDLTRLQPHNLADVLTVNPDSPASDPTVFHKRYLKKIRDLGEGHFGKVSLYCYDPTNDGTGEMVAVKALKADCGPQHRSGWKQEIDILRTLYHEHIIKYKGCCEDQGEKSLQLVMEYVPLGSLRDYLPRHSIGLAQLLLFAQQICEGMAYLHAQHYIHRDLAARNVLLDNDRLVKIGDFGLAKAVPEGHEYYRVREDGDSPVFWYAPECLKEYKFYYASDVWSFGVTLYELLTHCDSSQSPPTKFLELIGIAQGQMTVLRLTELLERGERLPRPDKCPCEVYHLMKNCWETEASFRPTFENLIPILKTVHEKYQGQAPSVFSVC
Sequence of JAK1 (P23458 whole entry, species assumed): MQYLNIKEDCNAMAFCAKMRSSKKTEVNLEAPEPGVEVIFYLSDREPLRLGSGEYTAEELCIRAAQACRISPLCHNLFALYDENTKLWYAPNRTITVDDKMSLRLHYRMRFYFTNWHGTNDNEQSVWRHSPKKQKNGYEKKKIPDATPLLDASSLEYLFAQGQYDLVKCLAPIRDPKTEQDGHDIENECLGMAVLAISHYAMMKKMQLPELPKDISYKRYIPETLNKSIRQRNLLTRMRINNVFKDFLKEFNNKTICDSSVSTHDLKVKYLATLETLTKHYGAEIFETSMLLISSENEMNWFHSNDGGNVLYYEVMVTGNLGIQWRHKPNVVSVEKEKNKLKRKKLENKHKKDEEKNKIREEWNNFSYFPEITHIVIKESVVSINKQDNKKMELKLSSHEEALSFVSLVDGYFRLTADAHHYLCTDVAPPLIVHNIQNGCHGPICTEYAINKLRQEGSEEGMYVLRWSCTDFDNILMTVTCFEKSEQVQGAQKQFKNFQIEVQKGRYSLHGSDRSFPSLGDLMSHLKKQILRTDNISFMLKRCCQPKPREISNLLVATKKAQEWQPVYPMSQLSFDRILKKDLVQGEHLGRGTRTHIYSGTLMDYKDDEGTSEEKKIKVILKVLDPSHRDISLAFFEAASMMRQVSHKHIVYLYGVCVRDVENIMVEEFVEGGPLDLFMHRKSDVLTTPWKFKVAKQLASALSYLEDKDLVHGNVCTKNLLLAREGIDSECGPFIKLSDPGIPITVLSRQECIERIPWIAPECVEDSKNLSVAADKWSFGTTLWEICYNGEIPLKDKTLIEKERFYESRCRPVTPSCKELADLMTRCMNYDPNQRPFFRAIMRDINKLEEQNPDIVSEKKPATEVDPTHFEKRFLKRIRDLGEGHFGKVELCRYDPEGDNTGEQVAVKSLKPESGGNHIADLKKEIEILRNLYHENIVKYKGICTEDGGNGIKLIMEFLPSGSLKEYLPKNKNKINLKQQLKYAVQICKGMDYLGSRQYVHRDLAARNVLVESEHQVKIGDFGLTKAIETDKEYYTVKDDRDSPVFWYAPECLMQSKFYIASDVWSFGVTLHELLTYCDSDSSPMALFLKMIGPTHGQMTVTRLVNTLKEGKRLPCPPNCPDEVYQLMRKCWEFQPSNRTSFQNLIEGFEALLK

For the compound `O=C(Nc1cn2c(-c3ccc(CN4CCS(=O)(=O)CC4)s3)cccc2n1)[C@H]1C[C@@H]1F` (relative stereo) [EXP-3, trans-N-[5-[5-[(1,1-dioxo-1,4-thiazin-4-yl)methyl]-2-thiophene]imidazo[1,2-a]pyridin-2-yl]-2-fluoro-cyclopropylcarboxamide], the IC50 is below 5 µM with THP1 cells; below 5 µM in the test on Hela cells; 10 to 30 nM against JAK1; above 500 nM at TYK2; above 500 nM at JAK3; 30 to 50 nM against JAK2.

Consider `O=C(Nc1nc2cccc(-c3ccc(CN4CCS(=O)(=O)CC4)s3)n2n1)C1CC1` [EXP-1], for which the IC50 with THP1 cells was below 5 µM; in the test with Hela cells, below 5 µM; at JAK1, 30 to 50 nM; against TYK2 it was above 500 nM; against JAK3, 50 to 500 nM; against JAK2 it was 30 to 50 nM.
